# Measured values as given in patent US20260355196A1, “INHIBITORS AND DEGRADERS OF PIP4K PROTEIN” (Larkspur Biosciences, Inc., priority 2023, published 2026).
# Target: T1, PIP4K2C (Homo sapiens, UniProt Q8TBX8)
# T1 sequence (Q8TBX8 1-421): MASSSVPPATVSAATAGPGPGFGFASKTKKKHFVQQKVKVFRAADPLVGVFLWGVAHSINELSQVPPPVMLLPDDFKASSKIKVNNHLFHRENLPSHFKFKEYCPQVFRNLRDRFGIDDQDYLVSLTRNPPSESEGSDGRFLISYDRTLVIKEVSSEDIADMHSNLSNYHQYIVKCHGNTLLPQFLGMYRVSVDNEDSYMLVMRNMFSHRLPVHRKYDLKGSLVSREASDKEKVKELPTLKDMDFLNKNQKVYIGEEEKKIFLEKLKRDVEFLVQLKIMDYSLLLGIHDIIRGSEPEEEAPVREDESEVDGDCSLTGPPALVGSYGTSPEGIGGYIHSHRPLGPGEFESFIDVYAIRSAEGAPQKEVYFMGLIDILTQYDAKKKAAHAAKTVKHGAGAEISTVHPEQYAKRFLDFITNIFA
# Experiment: HiBiT PIP4K2C degradation assay in MOLT-4 cells (endogenous PIP4K2C C-terminally tagged with HiBiT)
# Type: cell-based
# Design: untagged in primary human PBMCs and monocyte-derived dendritic cells
# Conditions: 6 hours of incubation time, rather than 24 hours; MOLT-4, top concentration 10 micromolar; read-out: HiBIT-degradation MOLT4 PIP4k2C DC50 (6 hours, marked *)
# Summary of the method: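 MOLT-4 cells with endogenous PIP4K2C C-terminally HiBiT-tagged by CRISPR were treated with a 10-point, 3-fold dilution series from 10 micromolar, in duplicate, for 24 h or 6 h at 37 C. Remaining tagged protein read by HiBiT lytic luminescence; DC50 from Hill-equation fit.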
row,SMILES,DC50
1,"O=C1CCC(Nc2ccc(N3CCN(CC4CCN(C(=O)[C@H]5CC[C@H](Nc6ncc(F)c(-c7cccc(N8CCCCC8)c7)n6)CC5)CC4)CC3)c(F)c2)C(=O)N1 (stereo partly drawn) [Compound 513, trans-3-((3-fluoro-4-(4-((1-(4-((5-fluoro-4-(3-(piperidin-1-yl)phenyl)pyrimidin-2-yl)amino)cyclohexane-1-carbonyl)piperidin-4-yl)methyl)piperazin-1-yl)phenyl)amino)piperidine-2,6-dione]",< 500 nM
2,"O=C1CC[C@H](Nc2ccc(C3CCN(CC4(O)CCN(C(=O)[C@H]5CC[C@H](Nc6ncc(F)c(-c7cccc(N8CCCCC8)c7)n6)CC5)CC4)CC3)c(F)c2)C(=O)N1 [Compound 514, trans-3-((3-fluoro-4-(1-((1-(4-((5-fluoro-4-(3-(piperidin-1-yl)phenyl)pyrimidin-2-yl)amino)cyclohexane-1-carbonyl)-4-hydroxypiperidin-4-yl)methyl)piperidin-4-yl)phenyl)amino)piperidine-2,6-dione]",< 500 nM
3,"O=C1CCC(Nc2ccc(C3CCN([C@H]4CC[C@H](NC(=O)[C@H]5CC[C@H](Nc6ncc(F)c(-c7cccc(N8CCCCC8)c7)n6)CC5)CC4)CC3)c(F)c2)C(=O)N1 (stereo partly drawn) [Compound 515, trans-N-(trans-4-(4-(4-((2,6-dioxopiperidin-3-yl)amino)-2-fluorophenyl)piperidin-1-yl)cyclohexyl)-4-((5-fluoro-4-(3-(piperidin-1-yl)phenyl)pyrimidin-2-yl)amino)cyclohexane-1-carboxamide]",< 500 nM
4,"O=C1CCC(Nc2ccc(N3CCC(N4CCC(C(=O)N[C@H]5CC[C@H](Nc6ncc(F)c(-c7cccc(N8CCCCC8)c7)n6)CC5)CC4)CC3)c(F)c2)C(=O)N1 (stereo partly drawn) [Compound 516, trans-1′-(4-((2,6-dioxopiperidin-3-yl)amino)-2-fluorophenyl)-N-(4-((5-fluoro-4-(3-(piperidin-1-yl)phenyl)pyrimidin-2-yl)amino)cyclohexyl)-[1,4′-bipiperidine]-4-carboxamide]",< 500 nM
5,"O=C1CC[C@H](Nc2ccc(N3CCN([C@H]4CC[C@H](C(=O)N[C@H]5CC[C@H](Nc6ncc(F)c(-c7cccc(-c8ccc[nH]c8=O)c7)n6)CC5)CC4)CC3)c(F)c2)C(=O)N1 [Compound 517, trans-4-(4-(4-(((S)-2,6-dioxopiperidin-3-yl)amino)-2-fluorophenyl)piperazin-1-yl)-N-((trans)-4-((5-fluoro-4-(3-(2-oxo-1,2-dihydropyridin-3-yl)phenyl)pyrimidin-2-yl)amino)cyclohexyl)cyclohexane-1-carboxamide]",< 500 nM
6,"O=C1CCC(Nc2ccc(C3CCN(CC4(O)CCN(C(=O)[C@H]5CC[C@H](Nc6ncc(F)c(-c7cccc(C8CC8)c7)n6)CC5)CC4)CC3)c(F)c2)C(=O)N1 (stereo partly drawn) [Compound 518, trans-3-((4-(1-((1-(4-((4-(3-cyclopropylphenyl)-5-fluoropyrimidin-2-yl)amino)cyclohexane-1-carbonyl)-4-hydroxypiperidin-4-yl)methyl)piperidin-4-yl)-3-fluorophenyl)amino)piperidine-2,6-dione]",< 500 nM
7,"O=C1CC[C@@H](Nc2ccc(C3CCN([C@H]4CC[C@H](NC(=O)[C@H]5CC[C@H](Nc6ncc(F)c(-c7cccc(N8CCCOC8=O)n7)n6)CC5)CC4)CC3)c(F)c2)C(=O)N1 [Compound 519, (trans)-N-((trans)-4-(4-(4-((2,6-dioxopiperidin-3-yl)amino)-2-fluorophenyl)piperidin-1-yl)cyclohexyl)-4-((5-fluoro-4-(6-(2-oxo-1,3-oxazinan-3-yl)pyridin-2-yl)pyrimidin-2-yl)amino)cyclohexane-1-carboxamide]",< 500 nM
8,"O=C1CCC(Nc2ccc(C3CCN([C@H]4CC[C@H](NC(=O)[C@H]5CC[C@H](Nc6ncc(F)c(-c7cccc(-n8ccccc8=O)n7)n6)CC5)CC4)CC3)c(F)c2)C(=O)N1 (stereo partly drawn) [Compound 520, trans-N-(trans-4-(4-(4-((2,6-dioxopiperidin-3-yl)amino)-2-fluorophenyl)piperidin-1-yl)cyclohexyl)-4-((5-fluoro-4-(2-oxo-2H-[1,2′-bipyridin]-6′-yl)pyrimidin-2-yl)amino)cyclohexane-1-carboxamide]",< 500 nM
9,"O=C1CCC(Nc2ccc(N3CCC(N4CCC(NC(=O)[C@H]5CC[C@H](Nc6ncc(F)c(-c7cccc(N8CCCCC8=O)c7)n6)CC5)CC4)CC3)c(F)c2)C(=O)N1 (stereo partly drawn) [Compound 521, trans-N-(1′-(4-((2,6-dioxopiperidin-3-yl)amino)-2-fluorophenyl)-[1,4′-bipiperidin]-4-yl)-4-((5-fluoro-4-(3-(2-oxopiperidin-1-yl)phenyl)pyrimidin-2-yl)amino)cyclohexane-1-carboxamide]",< 500 nM
10,"O=C1CCC(Nc2ccc(N3CCC(N4CCC(NC(=O)[C@H]5CC[C@H](Nc6ncc(F)c(-c7cccc(N8CCCOC8=O)c7)n6)CC5)CC4)CC3)c(F)c2)C(=O)N1 (stereo partly drawn) [Compound 522, trans-N-(1′-(4-((2,6-dioxopiperidin-3-yl)amino)-2-fluorophenyl)-[1,4′-bipiperidin]-4-yl)-4-((5-fluoro-4-(3-(2-oxo-1,3-oxazinan-3-yl)phenyl)pyrimidin-2-yl)amino)cyclohexane-1-carboxamide]",< 500 nM
11,"O=C1CCC(Nc2ccc(N3CCC(N4CCC(C(=O)N[C@H]5CC[C@H](Nc6ncc(F)c(-c7cccc(N8CCCCC8)c7)n6)CC5)CC4)C(F)C3)c(F)c2)C(=O)N1 (stereo partly drawn) [Compound 523, 1′-(4-((2,6-dioxopiperidin-3-yl)amino)-2-fluorophenyl)-3′-fluoro-N-((1r,4r)-4-((5-fluoro-4-(3-(piperidin-1-yl)phenyl)pyrimidin-2-yl)amino)cyclohexyl)-[1,4′-bipiperidine]-4-carboxamide]",< 500 nM
12,"O=C1CCC(Nc2ccc(N3CCC(N4CCC(C(=O)N[C@H]5CC[C@H](Nc6ncc(F)c(-c7cccc(N8CCCCC8=O)c7)n6)CC5)CC4)C(F)C3)c(F)c2)C(=O)N1 (stereo partly drawn) [Compound 524, 1′-(4-((2,6-dioxopiperidin-3-yl)amino)-2-fluorophenyl)-3′-fluoro-N-((1r,4r)-4-((5-fluoro-4-(3-(2-oxopiperidin-1-yl)phenyl)pyrimidin-2-yl)amino)cyclohexyl)-[1,4′-bipiperidine]-4-carboxamide]",< 500 nM
13,"O=C1CCC(Nc2ccc(N3CCC(N4CCC(C(=O)N[C@H]5CC[C@H](Nc6ncc(F)c(-c7cccc(N8CCCOC8=O)c7)n6)CC5)CC4)C(F)C3)c(F)c2)C(=O)N1 (stereo partly drawn) [Compound 525, 1′-(4-((2,6-dioxopiperidin-3-yl)amino)-2-fluorophenyl)-3′-fluoro-N-((1r,4r)-4-((5-fluoro-4-(3-(2-oxo-1,3-oxazinan-3-yl)phenyl)pyrimidin-2-yl)amino)cyclohexyl)-[1,4′-bipiperidine]-4-carboxamide]",< 500 nM
14,"O=C1CCC(Nc2ccc(N3CCC(N4CCC(C(=O)N[C@H]5CC[C@H](Nc6ncc(F)c(-c7cccc(N8CCOCC8=O)c7)n6)CC5)CC4)C(F)C3)c(F)c2)C(=O)N1 (stereo partly drawn) [Compound 526, 1′-(4-((2,6-dioxopiperidin-3-yl)amino)-2-fluorophenyl)-3′-fluoro-N-((1r,4r)-4-((5-fluoro-4-(3-(3-oxomorpholino)phenyl)pyrimidin-2-yl)amino)cyclohexyl)-[1,4′-bipiperidine]-4-carboxamide]",< 500 nM
15,"O=C1CCC(Nc2ccc(N3CCN([C@H]4CC[C@H](NC(=O)[C@H]5CC[C@H](Nc6ncc(F)c(-c7cccc(N8CCCCC8)c7)n6)CC5)CC4)CC3)c(F)c2)C(=O)N1 (stereo partly drawn) [Compound 527, trans-(1r,4R)—N-((1r,4R)-4-(4-(4-((2,6-dioxopiperidin-3-yl)amino)-2-fluorophenyl)piperazin-1-yl)cyclohexyl)-4-((5-fluoro-4-(3-(piperidin-1-yl)phenyl)pyrimidin-2-yl)amino)cyclohexane-1-carboxamide]",< 500 nM
16,"O=C1CCC(Nc2ccc(N3CCN(CC4(F)CCN(C(=O)[C@H]5CC[C@H](Nc6ncc(F)c(-c7cccc(-n8ccccc8=O)c7)n6)CC5)CC4)CC3)c(F)c2)C(=O)N1 (stereo partly drawn) [Compound 528, trans-3-((3-fluoro-4-(4-((4-fluoro-1-(4-((5-fluoro-4-(3-(2-oxopyridin-1(2H)-yl)phenyl)pyrimidin-2-yl)amino)cyclohexane-1-carbonyl)piperidin-4-yl)methyl)piperazin-1-yl)phenyl)amino)piperidine-2,6-dione]",< 500 nM
17,"O=C1CCC(Nc2ccc(N3CCN(CC4(F)CCN(C(=O)[C@H]5CC[C@H](Nc6ncc(F)c(-c7cccc(C8CC8)c7)n6)CC5)CC4)CC3)c(F)c2)C(=O)N1 (stereo partly drawn) [Compound 529, trans-3-((4-(4-((1-((1r,4r)-4-((4-(3-cyclopropylphenyl)-5-fluoropyrimidin-2-yl)amino)cyclohexane-1-carbonyl)-4-fluoropiperidin-4-yl)methyl)piperazin-1-yl)-3-fluorophenyl)amino)piperidine-2,6-dione]",< 500 nM
18,"O=C1CCC(Nc2ccc(N3CCN(CC4(F)CCN(C(=O)[C@H]5CC[C@H](Nc6ncc(F)c(-c7cccc(N8CCOCC8=O)c7)n6)CC5)CC4)CC3)c(F)c2)C(=O)N1 (stereo partly drawn) [Compound 530, trans-3-((3-fluoro-4-(4-((4-fluoro-1-(4-((5-fluoro-4-(3-(3-oxomorpholino)phenyl)pyrimidin-2-yl)amino)cyclohexane-1-carbonyl)piperidin-4-yl)methyl)piperazin-1-yl)phenyl)amino)piperidine-2,6-dione]",< 500 nM
